Clc1cc(Cl)c(OCCBr)c(Cl)c1
solubility (mole fraction)
Settings | in acetone | in acetonitrile | in ethanol | in isopropanol | in methanol | in n-heptane | in n-propanol
278.1 K | – | – | – | 0.00574 | 0.00356 | – | 0.0098
278.2 K | 0.094 | 0.0146 | 0.00698 | – | – | 0.0388 | –
283.1 K | 0.105 | – | 0.00794 | – | 0.00448 | 0.047 | –
283.2 K | – | 0.0176 | – | 0.00688 | – | – | 0.0105
288.1 K | 0.117 | – | – | – | 0.00563 | 0.057 | –
288.2 K | – | 0.0211 | 0.0086 | 0.00825 | – | – | 0.0113
293.1 K | 0.131 | 0.0253 | 0.00968 | 0.0099 | – | 0.069 | –
293.2 K | – | – | – | – | 0.0071 | – | 0.0121
298.1 K | – | – | 0.0108 | – | – | 0.0839 | 0.013
298.2 K | 0.146 | 0.0304 | – | 0.0118 | 0.00892 | – | –
303.1 K | – | 0.0364 | 0.012 | – | – | – | –
303.2 K | 0.163 | – | – | 0.0142 | 0.0112 | 0.102 | 0.014
308.1 K | – | – | – | – | 0.0141 | – | 0.0151
308.2 K | 0.182 | 0.0437 | 0.0134 | 0.017 | – | 0.123 | –
313.1 K | 0.203 | – | – | 0.0204 | – | 0.15 | –
313.2 K | – | 0.0525 | 0.0149 | – | 0.0177 | – | 0.0162
318.1 K | – | – | 0.0166 | 0.0245 | – | – | 0.0174
318.2 K | 0.226 | 0.063 | – | – | 0.0223 | 0.182 | –
323.1 K | – | – | – | – | 0.0281 | 0.22 | –
323.2 K | 0.253 | 0.076 | 0.0186 | 0.0294 | – | – | 0.0187

— BigSolDB 2.1
